Assay results reported in patent US20210317099A1, “SAFER, POTENT, AND FAST ACTING ANTIMICROBIAL AGENTS” (Purdue Research Foundation, priority 2020, published 2021).
Converted amounts (≈) assume the structure as drawn. Where two headings read alike, the source gives them in different places.

System: Staphylococcus aureus NRS384 (MRSA USA300)
Experiment: Initial MIC screening, broth microdilution (CLSI)
Assay type: cell-based
Settings: Staphylococcus aureus NRS384 (MRSA USA300), broth microdilution, visual reading
Method: Method: The minimum inhibitory concentration (MIC) of the compounds 1-187, and control antibiotics (vancomycin, linezolid) was determined using the broth microdilution method against methicillin-resistant Staphylococcus aureus (MRSA) USA 300 using the broth microdilution method according to the guidelines outlined by the Clinical and Laboratory Standards Institute (CLSI). MRSA strain was cultivated on Tryptic soy agar plates and let grow for 24 hours at 37° C. under aerobic conditions. Bacterial suspension equivalent to 0.5 McFarland standard was prepared and diluted in cation-adjusted Mueller-Hinton broth (CAMHB) to attain a bacterial concentration of 5×10^5 CFU/ml and seeded in 96-well plates. The desired concentrations of each drug and compound were added in the first row of the 96-well plates and serially diluted to achieve a concentration gradient from 64 μg/ml to 0.5 μg/mL.

[1] = Staphylococcus aureus, read-out: MIC

C=C1C(=O)O[C@H](c2ccccc2OC)[C@@H]1c1ccc(C#N)cc1 [Compound 42]
MIC [1]: 32 µg/mL (≈ 105 µM)

C=C1C(=O)O[C@H](c2ccc(O)cc2)[C@@H]1c1cccc(C#N)c1 [Compound 43]
MIC [1]: 128 µg/mL (≈ 439 µM)

C=C1C(=O)O[C@H](c2c(OC)cc(OC)cc2OC)[C@@H]1c1ccc(C#N)cc1 [Compound 44]
MIC [1]: > 128 µg/mL

CCC[C@@H]1[C@H](CN2CCCCC2)C(=O)O[C@H]1c1ccc(SC)cc1 [Compound 45]
MIC [1]: > 128 µg/mL

O=C1OC[C@H](/C=C/c2ccccc2)[C@@H]1CN1CCCCC1 [Compound 46]
MIC [1]: > 128 µg/mL

O=C1O[C@H](C2CCCCC2)C[C@@H]1CN1CCCCC1 [Compound 47]
MIC [1]: > 128 µg/mL

CC(C)(C)[Si](C)(C)OCC[C@H]1OC(=O)[C@@H](CN2CCCCC2)[C@H]1c1cccc(Br)c1 [Compound 48]
MIC [1]: > 128 µg/mL

C=C1C(=O)O[C@H](c2ccccc2OC)[C@@H]1c1cccc(C#N)c1 [Compound 49]
MIC [1]: 16 µg/mL (≈ 52.4 µM)

C=C1C(=O)O[C@H](c2ccccc2O)[C@@H]1c1cccc(C#N)c1 [Compound 50]
MIC [1]: > 128 µg/mL

C=C1C(=O)O[C@H](CCCCCCCC)[C@@H]1/C=C/c1ccccc1 [Compound 51]
MIC [1]: > 128 µg/mL

C=C1C(=O)O[C@H](CCO[Si](c2ccccc2)(c2ccccc2)C(C)(C)C)[C@@H]1c1ccc(C)cc1 [Compound 52]
MIC [1]: > 128 µg/mL

C=C1C(=O)O[C@H](c2ccccc2)[C@@H]1c1ccccc1Br [Compound 53]
MIC [1]: 4 µg/mL (≈ 12.2 µM)

C=C1C(=O)O[C@H](c2cc(OC)c(OC)c(OC)c2)[C@@H]1c1ccc(C#N)cc1 [Compound 54]
MIC [1]: 128 µg/mL (≈ 350 µM)

C=C1C(=O)O[C@H](c2cccc(OC)c2)[C@@H]1c1ccccc1Br [Compound 55]
MIC [1]: 8 µg/mL (≈ 22.3 µM)

C=C1C(=O)O[C@H](c2ccc(OCc3ccccc3)c(OC(C)=O)c2)[C@@H]1c1ccccc1Br [Compound 56]
MIC [1]: > 128 µg/mL

CC(=O)Oc1cc([C@H]2OC(=O)C(CN3CCOCC3)[C@H]2c2ccccc2Br)ccc1OCc1ccccc1 (stereo partly shown) [Compound 57]
MIC [1]: > 128 µg/mL

O=C1OC2(CCCC2)CC1CN1CCCCC1 (stereo not shown) [Compound 58]
MIC [1]: > 128 µg/mL

C=C1C(=O)O[C@H](/C=C/C)[C@@H]1c1ccc(Br)cc1 [Compound 59]
MIC [1]: 32 µg/mL (≈ 109 µM)

C=C1C(=O)O[C@H](c2c(OC)cc(OC)cc2OC)[C@@H]1c1ccc(C(F)(F)F)cc1 [Compound 61]
MIC [1]: > 128 µg/mL

CCN(CC)C[C@@H]1C(=O)O[C@H](c2ccccc2)[C@@H]1c1ccccc1 [Compound 62]
MIC [1]: 16 µg/mL (≈ 49.5 µM)

C=CCNC[C@@H]1C(=O)O[C@H](c2ccccc2)[C@@H]1c1ccccc1 [Compound 63]
MIC [1]: 128 µg/mL (≈ 416 µM)

C=C1C(=O)O[C@H](c2ccccc2)[C@@H]1c1ccc(C)cc1 [Compound 64]
MIC [1]: 32 µg/mL (≈ 121 µM)

C=C1C(=O)O[C@H](c2ccc(C)cc2)[C@@H]1c1ccc(C#N)cc1 [Compound 65]
MIC [1]: 4 µg/mL (≈ 13.8 µM)

C=C1C(=O)O[C@H](c2ccc(OC)cc2)[C@@H]1c1ccc(OC)cc1 [Compound 66]
MIC [1]: 32 µg/mL (≈ 103 µM)

C=C1C(=O)O[C@H](c2ccc(C)cc2)[C@@H]1c1ccc(C)cc1 [Compound 67]
MIC [1]: 64 µg/mL (≈ 230 µM)

C=C1C(=O)O[C@H](c2ccc(OC)cc2)[C@@H]1c1ccc(OC)cc1 [Compound 68]
MIC: 64 µg/mL (≈ 206 µM)

C=C1C(=O)O[C@H](c2ccccc2)[C@@H]1c1ccc(C#N)cc1 [Compound 69]
MIC [1]: > 128 µg/mL

C=C1C(=O)O[C@H](c2ccc(OC)cc2)[C@@H]1c1ccc(C#N)cc1 [Compound 70]
MIC [1]: 32 µg/mL (≈ 105 µM)

C=C1C(=O)O[C@H](c2ccc(C)cc2)[C@@H]1c1ccccc1 [Compound 71]
MIC [1]: 32 µg/mL (≈ 121 µM)

C=C1C(=O)O[C@H](c2ccccc2)[C@@H]1c1ccc(OC)cc1 [Compound 72]
MIC [1]: 64 µg/mL (≈ 228 µM)

C=C1C(=O)O[C@H](c2ccc(OC)cc2)[C@@H]1c1ccc(C)cc1 [Compound 74]
MIC [1]: 16 µg/mL (≈ 54.4 µM)

C=C1C(=O)O[C@H](c2ccc(OC)cc2)[C@@H]1c1ccccc1 [Compound 75]
MIC [1]: 64 µg/mL (≈ 228 µM)

O=C1OC[C@H](c2ccco2)C1CN1CCCCC1 (stereo partly shown) [Compound 76]
MIC [1]: > 128 µg/mL

C=C1C(=O)O[C@H](c2ccccc2OC)[C@@H]1c1ccc(C(F)(F)F)cc1 [Compound 77]
MIC [1]: 8 µg/mL (≈ 23 µM)

C=C1C(=O)O[C@H](c2ccc(OC)cc2)[C@@H]1c1ccccc1Br [Compound 78]
MIC [1]: 8 µg/mL (≈ 22.3 µM)

C=C1C(=O)O[C@H](c2ccc(OC)cc2)[C@@H]1c1ccc(C(F)(F)F)cc1 [Compound 79]
MIC [1]: 8 µg/mL (≈ 23 µM)

CC1(C)CC(CN2CCCCC2)C(=O)O1 (stereo not shown) [Compound 80]
MIC [1]: > 128 µg/mL

COc1ccc([C@H]2OC(=O)C(CN(C)C)[C@H]2c2ccc(OC)cc2)cc1 (stereo partly shown) [Compound 82]
MIC [1]: > 128 µg/mL

C=C1C(=O)O[C@H](c2cccc(OC)c2)[C@@H]1c1ccc(C(F)(F)F)cc1 [Compound 83]
MIC [1]: 16 µg/mL (≈ 45.9 µM)

C=C1C(=O)O[C@H](c2cccc(F)c2)[C@@H]1CCC [Compound 84]
MIC [1]: > 128 µg/mL

C=C1C(=O)O[C@H](c2ccc(OCc3ccccc3)c(OC)c2)[C@@H]1c1ccccc1Br [Compound 85]
MIC [1]: > 128 µg/mL

COc1ccc([C@@H]2C(CN(C)C)C(=O)O[C@@H]2c2ccc(C)cc2)cc1 (stereo partly shown) [Compound 86]
MIC [1]: 128 µg/mL (≈ 377 µM)

C=C1C(=O)O[C@H](c2ccc(OC)cc2)[C@@H]1c1ccccc1B1OC(C)(C)C(C)(C)O1 [Compound 87]
MIC [1]: > 128 µg/mL

C=C1C(=O)O[C@H](c2ccc(C(F)(F)F)cc2)[C@@H]1c1cccc(Br)c1 [Compound 88]
MIC [1]: 16 µg/mL (≈ 40.3 µM)

Cc1ccc([C@@H]2C(S3=NCCS3)C(=O)O[C@@H]2C2CCCCC2)cc1 (stereo partly shown) [Compound 91]
MIC [1]: > 128 µg/mL

C=C1C(=O)O[C@H](c2cc(OC)c(OC)c(OC)c2)[C@@H]1c1ccc(C(F)(F)F)cc1 [Compound 92]
MIC [1]: 32 µg/mL (≈ 78.4 µM)

C=C1C(=O)O[C@H](C2CCCCC2)[C@@H]1c1ccc(C)cc1 [Compound 93]
MIC [1]: > 128 µg/mL

C=C1C(=O)O[C@@H]2c3c(ccc4ccccc34)C(C)C[C@H]12 (stereo partly shown) [Compound 94]
MIC [1]: 32 µg/mL (≈ 121 µM)

CCN(CC)CC1C(=O)O[C@H](c2ccc3ccccc3c2)[C@H]1c1ccccc1 (stereo partly shown) [Compound 95]
MIC [1]: > 128 µg/mL

CCN(CC)CC1C(=O)O[C@H](c2ccc3ccccc3c2)[C@@H]1c1ccccc1 (stereo partly shown) [Compound 96]
MIC [1]: > 128 µg/mL

C=C1C(=O)O[C@H](c2ccccc2)[C@@H]1C [Compound 97]
MIC [1]: 16 µg/mL (≈ 85 µM)

C=C1C(=O)O[C@H](c2ccc(N(C)C)cc2)[C@@H]1c1ccccc1 [Compound 98]
MIC [1]: > 128 µg/mL

C=C1C(=O)O[C@H](c2cnc3ccccc3c2)[C@H]1c1ccccc1 [Compound 99]
MIC [1]: 32 µg/mL (≈ 106 µM)

C=C1C(=O)O[C@H](c2c(F)cccc2F)[C@@H]1c1ccccc1 [Compound 100]
MIC [1]: 8 µg/mL (≈ 27.9 µM)

C=C1C(=O)O[C@H](c2ccc([N+](=O)[O-])cc2)[C@@H]1C [Compound 102]
MIC [1]: > 128 µg/mL

C=C1C(=O)O[C@H](c2ccccc2)[C@@H]1c1ccccc1 [Compound 103]
MIC [1]: 32 µg/mL (≈ 128 µM)

C/C=C1/C(=O)O[C@H](c2ccc(C)cc2)[C@H]1C [Compound 104]
MIC [1]: > 128 µg/mL

C=C1C(=O)O[C@H](c2cc3ccccc3cn2)[C@@H]1C [Compound 105]
MIC [1]: 16 µg/mL (≈ 66.9 µM)

C=C1C(=O)O[C@H](C2CCCCC2)[C@@H]1c1ccccc1 [Compound 106]
MIC [1]: > 128 µg/mL

C=C1C(=O)O[C@H](c2ccccc2)[C@@H]1c1ccc2ccccc2c1 [Compound 107]
MIC: 8 µg/mL (≈ 26.6 µM)

CCN(CC)CC1C(=O)O[C@H](c2ccc3ccccc3c2)[C@H]1c1ccccc1 (stereo partly shown) [Compound 108]
MIC: >128 µg/mL

C=C1C(=O)O[C@H](c2ccccc2)[C@@H]1c1ccc2ccccc2c1 [Compound 109]
MIC: ≤1 µg/mL

C=C1C(=O)O[C@H](c2ccc3ccccc3c2)[C@H]1c1ccccc1 [Compound 110]
MIC [1]: 8 µg/mL (≈ 26.6 µM)

C=C1C(=O)O[C@H](c2ccnc3ccccc23)[C@@H]1c1ccc2ccccc2c1 [Compound 111]
MIC [1]: 2 µg/mL (≈ 5.69 µM)

C=C1C(=O)O[C@H](c2ccccc2)[C@@H]1c1ccc2ccccc2c1 [Compound 112]
MIC: 64 µg/mL (≈ 213 µM)

C=C1C(=O)O[C@H](c2ccnc3ccccc23)[C@H]1c1ccccc1 [Compound 113]
MIC: 16 µg/mL (≈ 53.1 µM)

C=C1C(=O)O[C@H](c2ccnc3ccccc23)[C@@H]1c1ccccc1 [Compound 114]
MIC [1]: 32 µg/mL (≈ 106 µM)

C=C1C(=O)O[C@H](c2ccccc2)[C@H]1c1ccc2ccccc2c1 [Compound 115]
MIC [1]: 2 µg/mL (≈ 6.66 µM)

C=C1C(=O)O[C@H](c2ccc3ccccc3n2)[C@@H]1c1ccccc1 [Compound 116]
MIC [1]: > 128 µg/mL

C=C1C(=O)O[C@H](c2ccc(OC)cc2)[C@@H]1C [Compound 117]
MIC [1]: > 128 µg/mL

C=C1C(=O)O[C@H](c2ccc(OC)cc2)[C@H]1C [Compound 118]
MIC [1]: > 128 µg/mL

C=C1C(=O)O[C@H](c2cccnc2)[C@@H]1C [Compound 119]
MIC [1]: > 128 µg/mL

C=C1C(=O)O[C@H](c2ccnc3ccccc23)[C@H]1c1ccccc1 [Compound 120]
MIC: 128 µg/mL (≈ 425 µM)

C=C1C(=O)O[C@H](c2ccnc3ncccc23)[C@H]1c1ccccc1 [Compound 121]
MIC [1]: 32 µg/mL (≈ 106 µM)

C=C1C(=O)O[C@H]2[C@H]1CC/C(C)=C/CC[C@@]1(C)O[C@@H]21 [Compound 125, Parthenolide, reference compound]
MIC [1]: 128 µg/mL (≈ 515 µM)

C=C(C(=O)OC)C(c1ccccc1)C(O)c1ccccc1 (stereo not shown) [Compound 141]
MIC [1]: 16 µg/mL (≈ 56.7 µM)

C=C(C(=O)OC)C(c1ccccc1)C(O)c1cccc2ccccc12 (stereo not shown) [Compound 142]
MIC [1]: 4 µg/mL (≈ 12 µM)

C=C(C(=O)OC)C(c1ccccc1)C(O)c1ccc2ccccc2c1 (stereo not shown) [Compound 143]
MIC [1]: 16 µg/mL (≈ 48.1 µM)

C=C(C(=O)OC)C(c1cccc2ccccc12)C(O)c1cccc2ccccc12 (stereo not shown) [Compound 145]
MIC [1]: > 64 µg/mL

C=C(C(=O)OC)C(c1cccc2ccccc12)C(O)c1ccc2ccccc2c1 (stereo not shown) [Compound 146]
MIC [1]: > 64 µg/mL

C=C(C(=O)OC)C(c1ccc2ccccc2c1)C(O)c1ccccc1 (stereo not shown) [Compound 147]
MIC [1]: 8 µg/mL (≈ 24.1 µM)

C=C1C(=O)O[C@H](c2ccccc2)[C@@H]1c1ccccc1 [Compound 150]
MIC: 16 µg/mL (≈ 63.9 µM)
